Measured values from paper PMC11335189, “Revealing molecular determinants governing mambalgin-3 pharmacology at acid-sensing ion channel 1 variants” (Cellular and Molecular Life Sciences: CMLS, 2024).
Like-named read-outs stand apart in the source and are kept apart here. Positions of bridges follow the written chain, without caps; N, C: chain ends. No end group written: not given here.

Experiments:
[1] = biological target: T1, hASIC1b (Homo sapiens, UniProt P78348); test: TEVC in Xenopus laevis oocytes expressing hASIC1b; type: cell-based; conditions: for remaining activity at 1 µM: 1 µM peptide, conditioning pH 7.45, mean, n ≥ 5, read-out: I/Icontrol
T1 construct: expressed in transfected cells; host or cells: Xenopus laevis oocytes (cRNA injection)
T1 sequence (P78348 1-562 isoform P78348-3): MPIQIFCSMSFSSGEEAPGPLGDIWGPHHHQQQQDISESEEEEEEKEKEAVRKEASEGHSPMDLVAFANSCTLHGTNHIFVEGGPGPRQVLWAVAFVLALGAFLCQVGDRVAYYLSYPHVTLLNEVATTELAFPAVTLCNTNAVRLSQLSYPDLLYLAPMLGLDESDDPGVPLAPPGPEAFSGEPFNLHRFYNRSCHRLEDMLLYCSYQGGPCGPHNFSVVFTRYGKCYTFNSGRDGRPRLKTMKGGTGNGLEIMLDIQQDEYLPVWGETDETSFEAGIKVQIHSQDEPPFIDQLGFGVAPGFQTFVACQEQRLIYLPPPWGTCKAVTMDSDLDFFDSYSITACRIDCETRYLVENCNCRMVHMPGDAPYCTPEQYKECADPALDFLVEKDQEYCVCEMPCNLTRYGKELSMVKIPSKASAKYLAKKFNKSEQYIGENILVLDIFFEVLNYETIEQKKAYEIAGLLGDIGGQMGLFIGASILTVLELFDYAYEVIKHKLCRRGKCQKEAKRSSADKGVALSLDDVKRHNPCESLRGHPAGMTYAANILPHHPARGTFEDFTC
Experimental: (§1) Two-electrode voltage-clamp (TEVC) experiments using Xenopus laevis oocytes were conducted as previously described. Briefly, oocytes were surgically removed from anaesthetised female frogs, then treated with collagenase (~ 1 mg/ml, Sigma type I) for 2 h under agitation at room temperature. cRNAs were synthesised using a mMessage mMachine T7 or SP6 transcription kit (Thermo Fisher Scientific Australia Pty Ltd, Scoresby, VIC, Australia) and injected into healthy stage V–VI oocytes at 0.2–20 ng per cell. Different amounts of RNA were used for different wild-type and mutant constructs, as well as to titrate expression levels to record over multiple days and maintaining consistent expression levels. Injected oocytes were incubated at 17 °C for 1–7 days in 50% Leibovitz’s L-15 medium (Gibco, Thermo Fisher Scientific Australia Pty Ltd, Scoresby, VIC, Australia), supplemented with 25 µg/mL gentamicin, 25 µg/mL streptomycin, and 2.5% fetal horse serum. Membrane currents were recorded 2–7 days after cRNA-injection under voltage-clamp at -60 mV (Axon Axoclamp 900 A, Molecular Devices, CA, USA) using two standard glass microelectrodes of 0.5–1 MΩ resistance when filled with 3 M KCl solution. Data were sampled at 2 kHz and filtered at 0.1 kHz using Clampex 10 software (Molecular Devices, CA, USA). A microperfusion system was used to allow fast extracellular solution exchange (bath volume = ~ 30 µL). All experiments were performed at room temperature (18–23 °C) in ND96 (96 mM NaCl, 2 mM KCl, 1.8 mM CaCl2, 2 mM MgCl2, 5 mM HEPES, pH 7.45). In solutions below pH 6.8, HEPES was replaced by MES. All solutions containing peptides contained 0.05% fatty acid free bovine serum albumin to decrease adsorptive losses of peptide to plasticware. For all channels tested, control current magnitudes between 500 and 9000 nA when tested using a conditioning pH of 7.45 and stimulating pH of 6 (except for the chimeras that were stimulated with pH 5) were used for data collection. Before recording any experiments, oocytes were stimulated multiple times with low pH to minimise and stabilise tachyphylaxis/desensitisation, which were then accounted for during analysis. Complete recovery of currents from Ma-3 induced modulation within 3 min of washout at all channels tested allowed for correction for tachyphylaxis/desensitisation during analyses.
(§2) Specific to this work, the standard protocol was for oocytes to be conditioned at pH 7.45 and channels stimulated every 60 s using a 5 s pH 5 or 6 application, unless stated otherwise. For all concentration-response data, peptides were applied for ~ 50 s between each low pH stimulus application. Activation curves were determined by conditioning oocytes at pH 8 (Fig. 2e − g; and Fig. 5a and b) or 7.45 (Fig. 6; and Supplementary Fig. 2d and c) for 55 s and applying low pH stimuli from 7.25 to 5.0 for 5 s. Steady-state desensitisation (SSD) was determined by applying conditioning solutions of pH values from 8 to 6 for 115 s prior to stimulation by a pH drop to 5 for 5 s. Ma-3 was only applied in the conditioning solution for activation and steady-state desensitisation curves in the presence of peptide. Control pH-dependence curves were determined in the absence of any Ma-3. When assessing the effect of Ma-3 on the rASIC1a: ASIC1b chimeras (C92 and C166; and for the comparative wild-type data), the conditioning pH was 7.45 and stimulating pH 5 (Fig. 3b). Specific details of the conditioning and stimulating pH are noted in each figure legend.
(§3) Data were analysed using pCLAMP-Clampfit software (Version 11, Molecular Devices, CA, USA) and GraphPad Prism 9.5 and 10.2.2 (GraphPad Software, San Diego, CA, USA). To obtain the Hill coefficient (nH) and half-maximal response (EC50, IC50, or pH50) the Hill equation was fitted to normalised concentration-response curves by using a non-linear fit to the data of a four-parameter logistic equation (“sigmoidal dose-response” in GraphPad Prism 9.5). […]

[2] = biological target: T2, rASIC1a S83T/Q84E/R175C/E177G (SQRE) (Rattus norvegicus, UniProt P55926, E177G/Q84E/R175C/S83T); test: TEVC oocytes, rASIC1a quadruple mutant SQRE; type: cell-based; conditions: for remaining activity at 0.3 µM: 300 nM peptide, conditioning pH 7.45, stimulating pH 6, read-out: I/Icontrol
T2 construct: expressed in transfected cells; host or cells: Xenopus laevis oocytes (cRNA injection)
T2 sequence (P55926 1-526 S83T/Q84E/R175C/E177G): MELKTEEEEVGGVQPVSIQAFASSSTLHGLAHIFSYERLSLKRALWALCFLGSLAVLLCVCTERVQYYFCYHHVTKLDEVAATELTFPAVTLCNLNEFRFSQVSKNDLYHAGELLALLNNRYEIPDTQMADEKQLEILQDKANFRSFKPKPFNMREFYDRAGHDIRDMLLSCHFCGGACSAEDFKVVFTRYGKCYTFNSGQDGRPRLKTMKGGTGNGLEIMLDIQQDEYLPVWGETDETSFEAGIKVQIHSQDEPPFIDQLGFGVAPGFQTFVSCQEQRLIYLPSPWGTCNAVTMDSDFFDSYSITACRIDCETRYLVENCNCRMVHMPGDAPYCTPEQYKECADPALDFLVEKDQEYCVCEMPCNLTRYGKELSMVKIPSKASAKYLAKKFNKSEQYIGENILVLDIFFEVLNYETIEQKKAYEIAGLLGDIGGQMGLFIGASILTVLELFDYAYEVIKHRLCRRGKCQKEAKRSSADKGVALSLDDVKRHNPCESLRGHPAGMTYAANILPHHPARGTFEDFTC
Experimental: as §1, §2, §3

| Substance | remaining activity at 1 µM ([1]; pH 5 evoked currents) [%] | remaining activity at 1 µM ([1]; pH 6 evoked currents) [%] | remaining activity at 0.3 µM ([2]; n = 5–8) [%] | pH50 of activation in presence of Ma-3 ([1]; 300 nM Ma-3, conditioning pH 7.45, Hill fit, n = 5–6) | difference in potency between pH 5 and pH 6 stimulus conditions ([1]; potentiation at pH 6 vs inhibition at pH 5, conditioning pH 7.45) | shift of the activation curve towards acidic values ([2]; 100 nM Ma-3, conditioning pH 8) [pH units] | slope of activation curve in presence of Ma-3 ([2]; 100 nM Ma-3, conditioning pH 8, mean ± SEM) | change of pH50 of the SSD curve ([2]; 100 nM Ma-3, stimulating pH 5) | slope of SSD curve in presence of Ma-3 ([2]; 100 nM Ma-3, stimulating pH 5, mean ± SEM) | pH50 of activation in presence of Ma-3 ([2]; 100 nM Ma-3 in conditioning solution, conditioning pH 8, Hill fit, mean ± SEM, n = 5–8) | pH50 of steady-state desensitisation (SSD) in presence of Ma-3 ([2]; 100 nM Ma-3 in conditioning solution, stimulating pH 5, Hill fit, mean ± SEM, n = 5–8) |
| --- | --- | --- | --- | --- | --- | --- | --- | --- | --- | --- | --- |
| H-SLKCYQHGAVVTCHRDMKFCYHNIGMPFRNLKLILQGCSSSCSETENNKCCSTDRCNK (disulfide 4-20, 13-38, 42-50, 51-56 (inferred)) [K8A] | 75 | 165 | 65 | – | – | – | – | – | – | – | – |
| H-SLKCYQHGKVVTCHRDAKFCYHNIGMPFRNLKLILQGCSSSCSETENNKCCSTDRCNK (disulfide 4-20, 13-38, 42-50, 51-56 (inferred)) [M16A] | 80 | 188 | 56 | – | – | – | – | – | – | – | – |
| H-SLKCYQHGKVVTCHRDMKFCYHNIGMPFRNLKLILQGCSSSCSETENNKCCSTDRCNK (disulfide 4-20, 13-38, 42-50, 51-56 (inferred)) [Ma-3, mambalgin-3] | 69 | 161 | 48 | 6.20 | ~ 10 fold | 0.11 | 2.68 ± 0.34 | remained unchanged | 5.47 ± 0.95 | 6.03 ± 0.02 | 7.12 ± 0.01 |
